Measured values published in patent publication US20210368825A1, “FEED ADDITIVE FOR DAIRY CATTLE COMPRISING N-ACETYL-L-TRYPTOPHAN AS ACTIVE INGREDIENT” (CJ CHEILJEDANG CORPORATION, priority 2018, published 2021).

Assays:
[1] = system: milking cows after calving; test: Analysis of milk yield of dairy cattle after calving according to NALT feeding; type: in vivo, Holstein Friesian cows
Description: (§1) From among Holstein Friesian cows in the late stage of gestation corresponding to 60 days before calving, 8 cows were selected in consideration of calving time (expected calving date±15 days), the number of calving (calving number), and the like, and 4 cows were assigned to each of a control (untreated) and a treated group.
(§2) In the present disclosure, as a basal diet fed during a dry period and a milking period, total mixed ration (TMR), roughage, and concentrates were provided in accordance with NRC (2001) nutrition requirements for dry cows. In the case of the treated group, evaluation was performed by supplementing N-acetyl-L-tryptophan (NALT) to the basal diet. Newborn calves were fed with colostrum for 3 days and then fed with milk obtained during a milking process for 8 weeks.
(§3) Evaluation of feed feeding before calving by feeding N-acetyl-L-tryptophan was performed for 60±8 days (error caused by difference in expected calving dates). The control was fed with the basal diet, and the treated group was fed with the basal diet supplemented with 15 g of NALT.
Milk yield of each of the 8 milking cows used in the present disclosure was recorded at 3 a.m. and 3 p.m. every day for 8 weeks, and average milk yield was calculated after pooling them every two weeks after calving.

[2] = system: dairy cattle in dry period; set-up: species or system Holstein Friesian cows; settings: in vivo
Description: as §1, §2, §3
(§4) Blood was collected from dairy cattle and calves during 6 weeks of the dry period and immediately after calving via the jugular vein before feeding a morning feed every 2 weeks for 8 weeks. The collected blood was aliquoted into a serum tube (BD Vacutainer, Plymouth, UK) and a heparin tube (Becton-Dickinson, Belliver Industrial Estate, Plymouth, PL6 7BP, UK) and centrifuged (3,500 rpm, 15 min, 20° C.) to separate plasma.
(§5) Samples for analysis of metabolic changes such as albumin, glutamic-oxalacetic transaminase (GOT), blood urea nitrogen (BUN), triglycerides (TG), cholesterol (CHO), glucose (GLU), and non-esterified fatty acid (NEFA) were aliquoted into a 1.5 mL tube (Eppendorf AG, Hamburg, Germany) in an amount of 500 μL each and stored in a deep freezer at −80° C.

[3] = system: dairy cattle after calving; set-up: species or system Holstein Friesian cows; settings: in vivo
Description: as §1, §2, §3, §4, §5

[4] = system: milking cows after calving; test: Analysis of milk quality of dairy cattle after calving according to NALT feeding (milk scanner FT1); type: in vivo, Holstein Friesian cows; set-up: Aceton / Aceton, total AVG / BHB / BHB, total AVG / Cas.B / Cas.B, total AVG / Mono FA / Mono FA, total AVG / Saturated FA / Saturated FA, total AVG / Total FA / Total FA, total AVG: unit not given here
Description: as §1, §2, §3
Raw milk was pooled at 3 a.m. and 3 p.m. every 14 days after calving when lactation was initiated, and chemical compositions contained in milk, i.e., milk fat, milk protein, lactose, solid-not-fat (SNF), somatic cells, milk urea nitrogen (MUN), acetone, beta-hydroxybutyrate (BHB), casein-beta, mono- and poly-unsaturated fatty acids, saturated fatty acids, and total fatty acid, were analyzed using a milk scanner FT1 (Foss Alle 1 DK-3400 Hilleroed, Denmark).
In addition, in order to identify changes in milk protein yield and milk fat yield, changes were identified on a weekly basis.

[5] = system: dairy cattle in dry period; test: Change in hematological properties of dairy cattle in dry period according to NALT feeding; type: in vivo, Holstein Friesian cows
Description: as §1, §2, §3, §4
Blood samples for analysis of changes in hematological properties such as white blood cells (WBC), lymphocytes, monocytes, granulocytes, mean corpuscular volume, mean corpuscular hemoglobin, and platelets were aliquoted into an ethylenediaminetetraacetic acid (EDTA)-treated vacutainer (Becton-Dickinson, Franklin Lakes, N.J., USA) and analyzed using a VetScan HM2 Hematology System (ABAXIS, Calif., USA).

[6] = average over 8 weeks after calving
[7] = milk, average over 8 weeks after calving

Albumin [2]: 3.93 g/dL | Albumin, total AVG [2]: 3.74 g/dL | BUN [2]: 12.25 mg/dL | BUN, total AVG [2]: 9.88 mg/dL | CHO [2]: 194.00 mg/dL | CHO, total AVG [2]: 143.08 mg/dL | GLU [2]: 50.00 mg/dL | GLU, total AVG [2]: 50.52 mg/dL | GOT [2]: 82.50 U/L | GOT, total AVG [2]: 80.92 U/L | TG [2]: 16.25 mg/dL | TG, total AVG [2]: 19.88 mg/dL | effect on metabolic changes of dairy cattle compared with control [2]: did not significantly affect | Albumin [3]: 3.73 g/dL | Albumin, total AVG [3]: 4.01 g/dL | BUN [3]: 10.75 mg/dL | BUN, total AVG [3]: 16.75 mg/dL | CHO [3]: 101.25 mg/dL | CHO, total AVG [3]: 188.45 mg/dL | GLU [3]: 83.75 mg/dL | GLU, total AVG [3]: 68.35 mg/dL | GOT [3]: 87.00 U/L | GOT, total AVG [3]: 89.65 U/L | TG [3]: 8.00 mg/dL | TG, total AVG [3]: 9.45 mg/dL | effect on metabolic changes of dairy cattle compared with control [3]: did not significantly affect | Monocyte ([5]; dry period, 0 wk, reference 0-0.84): 0.48 K/uL | Granulocyte ([5]; dry period, 0 wk, reference 0.6-6.7): 3.89 K/uL | Lymphocyte ([5]; dry period, 0 wk, reference 2.5-7.5): 7.68 K/uL | WBC ([5]; dry period, 0 wk, reference 4-12): 10.45 K/uL | MCH ([5]; dry period, 0 wk, reference 11-17): 16.01 pg | MCV ([5]; dry period, 0 wk, reference 40-60): 46.75 fL | Platelet ([5]; dry period, 0 wk, reference 100-800): 297.67 K/ul | Monocyte, total AVG ([5]; dry period, average 0 to 6 weeks, reference 0-0.84): 0.74 K/uL | Granulocyte, total AVG ([5]; dry period, average 0 to 6 weeks, reference 0.6-6.7): 3.29 K/uL | Lymphocyte, total AVG ([5]; dry period, average 0 to 6 weeks, reference 2.5-7.5): 7.88 K/uL | WBC, total AVG ([5]; dry period, average 0 to 6 weeks, reference 4-12): 11.91 K/uL | MCH, total AVG ([5]; dry period, average 0 to 6 weeks, reference 11-17): 16.74 pg | MCV, total AVG ([5]; dry period, average 0 to 6 weeks, reference 40-60): 47.54 fL | Platelet, total AVG ([5]; dry period, average 0 to 6 weeks, reference 100-800): 331.35 K/ul | effect on hematological properties of dairy cattle compared with control ([5]; during the dry period): did not significantly affect
Structure (SMILES): CC(=O)N[C@@H](Cc1c[nH]c2ccccc12)C(=O)O [NALT, N-acetyl-L-tryptophan]
Milk yield ([1]; 0 wk (immediately after calving)): 24.03 kg | increase in average milk yield compared with control ([1]; 8 weeks after calving): ≥ 4 kg | Milk yield, total AVG [1, 6]: 35.44 kg | Lactose ([4]; 0 wk): 3.48% | Milk fat ([4]; 0 wk): 6.25% | Milk protein ([4]; 0 wk): 12.81% | Milk urea nitrogen ([4]; 0 wk): 24.43 mg/dL | Solid-not Fat ([4]; 0 wk): 17.17% | Somatic cells ([4]; 0 wk): 4867.95 ×10^3 | Lactose, total AVG [4, 6]: 4.38% | Milk fat, total AVG [4, 6]: 6.31% | Milk protein, total AVG [4, 6]: 4.88% | Milk urea nitrogen, total AVG [4, 6]: 16.49 mg/dL | Solid-not Fat, total AVG [4, 6]: 9.95% | Somatic cells, total AVG [4, 6]: 1086.15 ×10^3 | milk fat yield of colostrum compared with control ([4]; immediately after calving): lower | milk protein yield of colostrum compared with control ([4]; immediately after calving): higher | BHB ([4]; milk beta-hydroxybutyrate, 0 wk): 0.00 | BHB, total AVG ([4]; milk beta-hydroxybutyrate, average over 8 weeks after calving): 0.04 | Cas.B ([4]; milk casein-beta, 0 wk): 9.76 | Cas.B, total AVG ([4]; milk casein-beta, average over 8 weeks after calving): 3.71 | Mono FA ([4]; milk mono-unsaturated fatty acids, 0 wk): 1.35 | Mono FA, total AVG ([4]; milk mono-unsaturated fatty acids, average over 8 weeks after calving): 1.70 | Poly FA ([4]; milk poly-unsaturated fatty acids, 0 wk): 0.34 | Poly FA, total AVG ([4]; milk poly-unsaturated fatty acids, average over 8 weeks after calving): 0.36 | Aceton ([4]; milk, 0 wk): 0.00 | Saturated FA ([4]; milk, 0 wk): 4.95 | Total FA ([4]; milk, 0 wk): 1.38 | Aceton, total AVG [4, 7]: 0.07 | Saturated FA, total AVG [4, 7]: 4.20 | Total FA, total AVG [4, 7]: 2.16 | milk fat yield as the experiment progressed ([4]; weekly basis after calving, control showed a tendency to decrease): tendency to be maintained constantly
